# Assay results as given in US8853274B1, “Compositions and methods for targeting glioblastomas cells” (Vanderbilt University, priority 2011, dated 2014).
# What was measured:
# T4302 CD133+ cells = test: Caspase 3/7 activation (apoptosis); format: cell-based, human; settings: 100 nM, day 3
# Experimental: (A) T4302 CD133+ GBM stem cells were enriched from freshly collected subcutaneous xenograft tumors, cultured in stem cell media. Cells were left unirradiated or irradiated at 3 Gy. The relative mRNA levels of Hes2 were determined by quantitative real-time PCR at the time points as indicated. (B) T4302 CD133+ cells were pre-treated with vehicle (DMSO), 2 μM DAPT or 0.5 μM L685,458 for 4 hours and irradiated as indicated. Cells were then plated to form neurospheres. Fourteen days after plating, neurospheres containing more than 50 cells were scored. To determine the surviving fractions, the number of neurosphere at each radiation dose was normalized to that of the corresponding sham-irradiated group. (C) T4302 CD133+ cells were treated with GSIs±radiation as indicated. Relative caspase 3/7 activities were determined by normalizing caspase activities to the corresponding cell numbers. (D), (E) T4302 CD133+ cells were infected with lentivirus directing expression of non-targeting shRNA or shRNAs specific to Notch1 or Notch2 (KD-Notch1 or KD-Notch2), and selected with puromycin. Relative caspase 3/7 activities and clonogenic survival were determined as described above. (F) T4302 CD133+ cells were infected with control lentivirus or lentivirus directing expression of NICD2. Clonogenic survival was determined as described above. *: p<0.05 by Student's t-test; #: p<0.01 by one-way ANOVA.
# (A, B) T4302 CD133+ cells were treated with 100 nM RO4929097 (GSI) and/or 100 nM tipifarnib (FTI) for 4 hours prior to 3 Gy radiation. (A) Cell growth on day 5 and (B) caspase 3/7 activation on day 3 were determined as described in FIG. 4. #: p<0.001 by one-way ANOVA, combo vs. single agents. (C) The effects of GSIs and FTI against growth of T4302 CD133− cells were determined as described in panel A. (D, E) T4302 CD133+ cells were treated with GSI, FTI, or a 1:1 mixture at different concentrations (ranging from 3000 nM to ˜0.5 nM, 1:3 dilution)±3 Gy radiation. Cell viability was determined at 5 days after treatment in comparison to vehicle-treated groups. […] (F) T4302 CD 133+ cells were treated by GSI±FTI with a 2-fold dilution. Neurospheres were countered on day 10, and normalized to the vehicle-treated group.
# cleaved Notch1 = test: IHC staining for cleaved Notch1 in intracranial tumors; format: in vivo, Mice; settings: oral 30 mg/kg/day, 7 days
# Experimental: (A, B) T4302 CD133+ cells were treated with 100 nM GSI±FTI for 48 hours and lysed in RIPA buffer. Mice bearing intracranial T4302 tumors were orally treated with 30 mg/kg/day GSI once a day (q.d.)±100 mg/kg/day FTI twice a day (b.i.d.) for 7 days. Brains were resected and homogenized in RIPA buffer. All lysates were blotted with an antibody specific to prelamin A. (B) Additional brains were fixed and resected for IHC staining for cleaved Notch1. (C) T4302 CD133+ cells were infected with lentivirus expressing firefly luciferase and selected with puromycin for two days. Athymic nude mice were intracranially implanted with 5,000 cells, maintained for 10 days, and treated with GSI±FTI for 20 days as described above. In a separated experiment, animals were treated by the same protocol, except they were given 2 doses of 4 Gy X-ray irradiation on day 11 and day 12, 4 hours after drug administration. These mice were on drugs for 30 days. The median survival was calculated by the GraphPad Prism 5 software. (D) Animals in the unirradiated experiment were tracked for their tumor progression by bioluminescence imaging. The Y axis is set in a log scale. (E,F) The survival curves of these two experiments are shown.
# GBM43 = test: Growth inhibition at day 5, spheroid GBM culture; format: cell-based, human; settings: effects diminished after radiation
# Experimental: (§1) (A) Known genetic features of selected GBM samples. WT: wild type; Amp: amplification; vIII: EGFRvIII; ND: not determined. (B) Spheroid GBM cultures were derived from freshly collected subcutaneous tumors and cultured for 2 weeks in stem cell media to enrich stem cell-like cancer cells. SF7225 was maintained as a primary spheroid culture. Growth inhibition at day 5 after treatment was determined as described in FIG. 5. *: p<0.01 by Student's t-test and growth inhibition ≧30% vs. the corresponding vehicle-treated groups. #: p<0.01 and >30% growth inhibition vs. the radiation only groups.
# (§2) Work is now extended to a set of subcutaneous GBM xenografts (GBM) established by Dr. Jann Sarkaria and colleagues at Mayo Clinic. These samples are known to have mutational status of EGFR, p53 and PTEN and different radiosensitivity (FIG. 8A) (69-71). Because the cancer stem cell identity of CD133+ of the Mayo Clinic samples has not been validated by functional assays, the present inventor used the neurosphere culture that is widely utilized as a surrogate of GSCs for its ability to enrich GSC-like population (72, 73). Tumor response to GSI, FTI and/or radiation was determined as growth inhibition on day 5 after treatment, with a greater than 30% cell number reduction was defined as positive response mimicking the RECIST criteria (FIG. 8B). […] Therefore, the present inventor will continuously expand the GBM panel and determine the genomic features of all samples with focus on prevalent GBM-associated aberrations. On the basis of this molecularly characterized tumor panel, the present inventor will start to explore the potential biomarkers that may predict tumor response to the combination therapy of radiation, GSI and FTI by experiments described in herein.
# GBM 44 = test: Growth inhibition at day 5, spheroid GBM culture; format: cell-based, human
# Experimental: as §1, §2
# CD133+ GBM stem cells = test: Growth inhibition within 5 days, panel of glioblastoma xenograft samples; format: cell-based, human; settings: 5-day period; in combination with 3 Gy radiation
# Experimental: CD133+ cells were derived from multiple glioblastoma xenograft samples as indicated. The growth inhibitory effects by GSI and/or FTIs were determined as described in FIG. 5.
# Therefore, effective killing of GBM stem cells may delay or even prevent tumor recurrence. […] In combination with radiation, GSIs or FTIs alone reduced cell numbers by ˜75%.
# HIF1α and HIF2α = test: Immunoblot of HIF1α/HIF2α under hypoxia in T4302 CD133+ cells; format: cell-based, human; settings: 200 nM 24 h, then 2% O2 16 h
# Experimental: (A) T4302 CD133+ cells were treated with 200 nM RO4929097 (GSI), and irradiated 4 hours later. Cells were cultured for two days and lysed for immunoblotting. (B) T4302 CD133+ cells were treated with 200 nM GSI or FTI±radiation. Cells were lysed 2 days after treatment. (C) T4302 CD133+ cells were treated with 200 nM GSI±FTI for 24 hours, and left under normoxia or in 2% O2 for 16 hours before being lysed for immunoblotting.
smiles,measurement,setting,value
CC(C)(C(=O)NCC(F)(F)C(F)(F)F)C(=O)N[C@@H]1C(=O)Nc2ccccc2-c2ccccc21 [RO4929097],"caspase 3/7 activation, in words",T4302 CD133+ cells; absence of radiation,without apparent activation of apoptosis
same,increase of caspase 3/7 activity compared with the sham-treated group,T4302 CD133+ cells; following 3-Gy radiation,approximately 2 fold
same,levels of cleaved Notch1 in intracranial tumors (IHC),cleaved Notch1,decreased the levels of cleaved Notch1
same,"tumor response (growth inhibition day 5), in words",GBM43,moderate response
same,growth inhibition on day 5,GBM 44; 0 Gy,48±3.2%
same,growth inhibition on day 5,GBM 44; 3 Gy,65±3.3%
same,growth inhibition / reduction of cell numbers,CD133+ GBM stem cells,~75%
same,HIF1α and HIF2α levels upon hypoxia stimulation,HIF1α and HIF2α,moderate reduction
